From ChEMBL document CHEMBL2311417, “Synthesis and biological evaluation of N-aryl-7-methoxybenzo[b]furo[3,2-d]pyrimidin-4-amines and their N-arylbenzo[b]thieno[3,2-d]pyrimidin-4-amine analogues as dual inhibitors of CLK1 and DYRK1A kinases” (Eur J Med Chem, 2013)
pIC50: −log10 of the molar value.

Legend:
[1] = Inhibition of porcine brain CK1delta/epsilon using RRKHAAIGpSAYSITA as substrate; design: species or system Sus scrofa
[2] = target: Dual specificity tyrosine-phosphorylation-regulated kinase 1A (Rattus norvegicus, UniProt Q63470); assay: Inhibition of rat recombinant DYRK1A-GST expressed in Escherichia coli using KKISGRLSPIMTEQ as substrate
[3] = target: Dual specificity protein kinase CLK1 (Homo sapiens, UniProt P49759)
[4] = target: Cyclin-dependent kinase 5/CDK5 activator 1 (Homo sapiens, UniProt Q00535); assay: Inhibition of human recombinant CDK5/p25 after 30 mins by scintillation counting; format: protein-complex assay
[5] = target: Glycogen synthase kinase-3 (Sus scrofa, UniProt B2LUN4+I6LNT8); assay: Inhibition of porcine brain GSK3alpha/beta using GS-1 as substrate

Chain of Dual specificity protein kinase CLK1 (P49759 whole entry): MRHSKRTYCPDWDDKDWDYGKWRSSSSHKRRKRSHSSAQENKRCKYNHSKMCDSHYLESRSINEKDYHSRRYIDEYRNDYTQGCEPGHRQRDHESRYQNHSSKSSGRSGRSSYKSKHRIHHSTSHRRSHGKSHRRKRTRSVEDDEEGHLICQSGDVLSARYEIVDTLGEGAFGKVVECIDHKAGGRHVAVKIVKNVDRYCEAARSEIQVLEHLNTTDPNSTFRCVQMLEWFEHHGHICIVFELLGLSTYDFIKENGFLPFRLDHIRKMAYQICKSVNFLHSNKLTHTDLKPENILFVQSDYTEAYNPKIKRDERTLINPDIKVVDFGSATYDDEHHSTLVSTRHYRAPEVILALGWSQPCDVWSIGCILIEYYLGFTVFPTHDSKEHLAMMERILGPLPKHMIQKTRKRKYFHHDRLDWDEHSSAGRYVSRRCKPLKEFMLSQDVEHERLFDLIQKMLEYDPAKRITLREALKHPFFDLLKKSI
Chain of Cyclin-dependent kinase 5/CDK5 activator 1 (Q00535 whole entry): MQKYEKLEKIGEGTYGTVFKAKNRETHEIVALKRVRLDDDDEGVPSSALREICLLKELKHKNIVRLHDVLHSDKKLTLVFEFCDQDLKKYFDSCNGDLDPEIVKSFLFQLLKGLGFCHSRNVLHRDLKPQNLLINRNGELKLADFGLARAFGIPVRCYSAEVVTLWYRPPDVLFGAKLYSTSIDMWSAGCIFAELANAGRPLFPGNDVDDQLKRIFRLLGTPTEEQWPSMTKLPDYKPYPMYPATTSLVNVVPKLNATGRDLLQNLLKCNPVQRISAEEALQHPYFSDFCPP
Chain of Cyclin-dependent kinase 5/CDK5 activator 1 (Q15078 whole entry, further chain): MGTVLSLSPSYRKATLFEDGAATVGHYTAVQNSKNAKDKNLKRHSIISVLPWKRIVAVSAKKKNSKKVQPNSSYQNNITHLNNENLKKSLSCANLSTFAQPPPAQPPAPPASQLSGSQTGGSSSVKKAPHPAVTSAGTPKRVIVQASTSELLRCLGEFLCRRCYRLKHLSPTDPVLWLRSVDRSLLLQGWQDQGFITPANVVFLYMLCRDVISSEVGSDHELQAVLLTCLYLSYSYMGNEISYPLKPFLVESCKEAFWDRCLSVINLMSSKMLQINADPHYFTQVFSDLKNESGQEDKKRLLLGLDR

| SMILES | pIC50 [1] | pIC50 [2] | pIC50 [3] | pIC50 [4] | IC50 [5] |
| --- | --- | --- | --- | --- | --- |
| COc1ccc2c(c1)oc1c(Nc3ccc(Cl)cc3)ncnc12 | < 5.00 | < 5.00 | < 5.00 | < 5.00 | > 10 µM |
| COc1ccc2c(c1)sc1c(Nc3ccc(Cl)cc3)ncnc12 | < 5.00 | < 5.00 | < 5.00 | < 5.00 | > 10 µM |
| COc1ccc2c(c1)[nH]c1c(C)nccc12 [HARMINE] | 5.82 | – | – | – | > 10 µM |
| COc1ccc2c(c1)oc1c(Nc3ccc(Cl)cc3F)ncnc12 | < 5.00 | < 5.00 | < 5.00 | < 5.00 | > 10 µM |
| COc1ccc2c(c1)sc1c(Nc3ccc(Br)cc3)ncnc12 | < 5.00 | < 5.00 | < 5.00 | < 5.00 | > 10 µM |
| COc1ccc2c(c1)sc1c(Nc3cccc(C)c3)ncnc12 | < 5.00 | 5.21 | < 5.00 | < 5.00 | > 10 µM |
| COc1ccc2c(c1)oc1c(Nc3ccc(F)c(Cl)c3)ncnc12 | < 5.00 | < 5.00 | < 5.00 | < 5.00 | > 10 µM |
| COc1ccc2c(c1)sc1c(Nc3ccc(C#N)cc3)ncnc12 | < 5.00 | 5.59 | 5.17 | < 5.00 | > 10 µM |
| COc1ccc2c(c1)sc1c(Nc3ccc(N(C)C)cc3)ncnc12 | < 5.00 | 6.18 | 6.10 | < 5.00 | > 10 µM |
| COc1ccc2c(c1)sc1c(Nc3ccc(F)cc3)ncnc12 | < 5.00 | < 5.00 | < 5.00 | < 5.00 | > 10 µM |
| COc1ccc2c(c1)sc1c(Nc3ccc4c(c3)OCCO4)ncnc12 | < 5.00 | 6.30 | 6.17 | < 5.00 | > 10 µM |
| COc1ccc2c(c1)oc1c(Nc3ccc4c(c3)OCO4)ncnc12 | < 5.00 | 5.55 | 5.70 | < 5.00 | > 10 µM |
| COc1ccc2c(c1)oc1c(Nc3ccc(N(C)C)cc3)ncnc12 | < 5.00 | < 5.00 | < 5.00 | < 5.00 | > 10 µM |
| COc1ccc2c(c1)oc1c(Nc3ccc(Br)cc3)ncnc12 | < 5.00 | < 5.00 | < 5.00 | < 5.00 | > 10 µM |
| COc1ccc2c(c1)sc1c(Nc3ccccc3Cl)ncnc12 | < 5.00 | 6.21 | 5.51 | < 5.00 | > 10 µM |
| COc1ccc2c(c1)oc1c(Nc3cccc(C)c3)ncnc12 | < 5.00 | < 5.00 | < 5.00 | < 5.00 | > 10 µM |
| COc1ccc2c(c1)oc1c(Nc3ccc(C#N)cc3)ncnc12 | < 5.00 | < 5.00 | < 5.00 | < 5.00 | > 10 µM |
| COc1ccc2c(c1)sc1c(Nc3ccc(F)c(Cl)c3)ncnc12 | < 5.00 | < 5.00 | < 5.00 | < 5.00 | > 10 µM |
| COc1ccc2c(c1)oc1c(Nc3ccc(F)cc3F)ncnc12 | < 5.00 | < 5.00 | < 5.00 | < 5.00 | > 10 µM |
| COc1ccc2c(c1)oc1c(Nc3ccc(C)cc3)ncnc12 | < 5.00 | < 5.00 | – | < 5.00 | > 10 µM |
| COc1ccc2c(c1)oc1c(Nc3ccc(OC)c(OC)c3)ncnc12 | < 5.00 | < 5.00 | < 5.00 | < 5.00 | > 10 µM |
| COc1ccc2c(c1)sc1c(Nc3cccc(C(F)(F)F)c3)ncnc12 | < 5.00 | < 5.00 | < 5.00 | < 5.00 | > 10 µM |
| COc1ccc2c(c1)sc1c(Nc3ccc(Br)cc3F)ncnc12 | < 5.00 | 6.15 | 5.64 | < 5.00 | > 10 µM |
| COc1ccc2c(c1)sc1c(Nc3cc(OC)c(OC)c(OC)c3)ncnc12 | < 5.00 | < 5.00 | < 5.00 | < 5.00 | > 10 µM |
| COc1ccc2c(c1)sc1c(N)ncnc12 | < 5.00 | < 5.00 | < 5.00 | < 5.00 | > 10 µM |
| COc1ccc2c(c1)sc1c(Nc3ccc(Cl)cc3F)ncnc12 | < 5.00 | < 5.00 | < 5.00 | < 5.00 | > 10 µM |
| COc1ccc2c(c1)oc1c(Nc3ccc4c(c3)OCCO4)ncnc12 | < 5.00 | < 5.00 | < 5.00 | < 5.00 | > 10 µM |

| SMILES | pIC50 [1] | pIC50 [2] | pIC50 [3] | pIC50 [4] | IC50 [5] |
| --- | --- | --- | --- | --- | --- |
| COc1ccc2c(c1)oc1c(Nc3cccc(Cl)c3)ncnc12 | < 5.00 | < 5.00 | < 5.00 | < 5.00 | > 10 µM |
| COc1ccc(Nc2ncnc3c2sc2cc(OC)ccc23)cc1 | < 5.00 | 5.15 | < 5.00 | < 5.00 | > 10 µM |
| COc1ccc2c(c1)sc1c(Nc3ccc(F)cc3F)ncnc12 | 5.41 | 6.03 | 5.80 | < 5.00 | > 10 µM |
| COc1ccc2c(c1)oc1c(Nc3cccc(C(F)(F)F)c3)ncnc12 | < 5.00 | < 5.00 | < 5.00 | < 5.00 | > 10 µM |
| COc1cc(Nc2ncnc3c2sc2cc(OC)ccc23)cc(OC)c1 | < 5.00 | 5.41 | 5.29 | < 5.00 | > 10 µM |
| COc1ccc2c(c1)oc1c(Nc3ccc(Br)cc3F)ncnc12 | < 5.00 | < 5.00 | < 5.00 | < 5.00 | > 10 µM |
| COc1ccc(Nc2ncnc3c2oc2cc(OC)ccc23)c(F)c1 | < 5.00 | < 5.00 | < 5.00 | < 5.00 | > 10 µM |
| COc1ccc2c(c1)oc1c(Nc3ccccc3Cl)ncnc12 | < 5.00 | 5.49 | 5.38 | < 5.00 | > 10 µM |
| COc1ccc2c(c1)sc1c(Nc3ccc(C)cc3)ncnc12 | < 5.00 | < 5.00 | < 5.00 | < 5.00 | > 10 µM |
| COc1cc(Nc2ncnc3c2oc2cc(OC)ccc23)cc(OC)c1 | < 5.00 | < 5.00 | – | < 5.00 | > 10 µM |
| COc1ccc2c(c1)sc1c(Nc3ccc(Cl)c(Cl)c3)ncnc12 | < 5.00 | 5.70 | 5.21 | < 5.00 | > 10 µM |
| COc1ccc2c(c1)oc1c(Nc3ccccc3)ncnc12 | < 5.00 | < 5.00 | < 5.00 | < 5.00 | > 10 µM |
| COc1ccc(Nc2ncnc3c2sc2cc(OC)ccc23)c(F)c1 | < 5.00 | 6.15 | < 5.00 | < 5.00 | > 10 µM |
| COc1ccc2c(c1)sc1c(Nc3ccc(OC)c(OC)c3)ncnc12 | < 5.00 | 6.03 | 5.55 | < 5.00 | > 10 µM |
| COc1ccc2c(c1)sc1c(Nc3ccc(Cl)cc3Cl)ncnc12 | < 5.00 | 5.80 | < 5.00 | < 5.00 | > 10 µM |
| COc1ccc2c(c1)oc1c(Nc3ccc(Cl)cc3Cl)ncnc12 | < 5.00 | 5.51 | < 5.00 | < 5.00 | > 10 µM |
| COc1ccc2c(c1)sc1c(Nc3ccccc3)ncnc12 | < 5.00 | < 5.00 | < 5.00 | < 5.00 | > 10 µM |
| COc1ccc2c(c1)oc1c(Nc3ccc(F)cc3)ncnc12 | < 5.00 | < 5.00 | < 5.00 | < 5.00 | > 10 µM |
| COc1ccc(Nc2ncnc3c2oc2cc(OC)ccc23)cc1 | < 5.00 | 6.06 | 5.82 | < 5.00 | > 10 µM |
| COc1ccc2c(c1)sc1c(Nc3cccc(Cl)c3)ncnc12 | < 5.00 | < 5.00 | < 5.00 | < 5.00 | > 10 µM |
| COc1ccc2c(c1)oc1c(Nc3cc(OC)c(OC)c(OC)c3)ncnc12 | < 5.00 | < 5.00 | < 5.00 | < 5.00 | > 10 µM |
| COc1ccc2c(c1)sc1c(Nc3ccc4c(c3)OCO4)ncnc12 | < 5.00 | < 5.00 | < 5.00 | < 5.00 | > 10 µM |
| COc1ccc2c(c1)oc1c(Nc3cc(Cl)cc(Cl)c3)ncnc12 | < 5.00 | < 5.00 | < 5.00 | < 5.00 | > 10 µM |
| COc1ccc2c(c1)oc1c(Nc3ccc(Cl)c(Cl)c3)ncnc12 | < 5.00 | < 5.00 | < 5.00 | < 5.00 | > 10 µM |
| COc1ccc2c(c1)oc1c(N)ncnc12 | 5.72 | 5.96 | 6.39 | < 5.00 | > 10 µM |
| COc1ccc2c(c1)sc1c(Nc3cc(Cl)cc(Cl)c3)ncnc12 | < 5.00 | 5.09 | < 5.00 | < 5.00 | > 10 µM |
